Measurements reported in PubChem BioAssay (NCI).
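Assay format: 96-well plates, 48-hour exposure. GI50: concentration for 50% inhibition of growth. TGI: concentration producing complete growth inhibition.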

Tests used:
Experiment in all cases: NCI tumour cell line growth inhibition, 48 h
[1] = test system: SK-MEL-5 melanoma
[2] = test system: SNB-75 CNS
[3] = test system: A498 renal
[4] = test system: OVCAR-4 ovarian
[5] = test system: SN12C renal
[6] = test system: SF-295 CNS
[7] = test system: BT-549 breast
[8] = test system: OVCAR-5 ovarian
[9] = test system: EKVX NSCLC
[10] = test system: HT29 colon
[11] = test system: U251 CNS
[12] = test system: COLO 205 colon
[13] = test system: HCT-15 colon
[14] = test system: CAKI-1 renal
[15] = test system: RXF 393 renal
[16] = test system: MOLT-4 leukemia
[17] = test system: MDA-MB-435
[18] = test system: HS 578T breast
[19] = test system: SK-OV-3 ovarian
[20] = test system: NCI-H23 lung
[21] = test system: T-47D breast
[22] = test system: SK-MEL-28 melanoma
[23] = test system: HOP-62 NSCLC
[24] = test system: CCRF-CEM leukemia
[25] = test system: OVCAR-3 ovarian
[26] = test system: SF-268 CNS
[27] = test system: PC-3 prostate
[28] = test system: KM12 colon
[29] = test system: UACC-62 melanoma
[30] = test system: MCF7 breast
[31] = test system: NCI-H460 lung
[32] = test system: UO-31 renal
[33] = test system: A549 NSCLC
[34] = test system: TK-10 renal
[35] = test system: HOP-92 NSCLC
[36] = test system: M14 melanoma
[37] = test system: LOX IMVI melanoma
[38] = test system: NCI-H522 lung
[39] = test system: NCI-H226 lung
[40] = test system: UACC-257 melanoma
[41] = test system: SF-539 CNS
[42] = test system: RPMI-8226 leukemia
[43] = test system: MALME-3M melanoma
[44] = test system: MDA-MB-231 breast
[45] = test system: K-562 leukemia
[46] = test system: SNB-19 CNS
[47] = test system: OVCAR-8 ovarian
[48] = test system: SR leukemia
[49] = test system: HCC-2998 colon
[50] = test system: IGROV1 ovarian
[51] = test system: HCT-116 colon
[52] = test system: HL-60(TB) leukemia
[53] = test system: SW-620 colon
[54] = test system: ACHN renal
[55] = test system: MDA-MB-468 breast
[56] = test system: 786-0 renal
[57] = test system: DU-145 prostate
[58] = test system: NCI/ADR-RES ovarian
[59] = test system: SK-MEL-2 melanoma

SMILES: COc1ccc(N2N=C(c3ccc4c(c3)OCO4)CC2c2cccc(NC(=O)CCNS(=O)(=O)c3ccc(Cl)cc3)c2)cc1 (stereo not given)
- GI50 [1]: 22.8 µM
- TGI [1]: > 100 µM
- GI50 [2]: 9.46 µM
- TGI [2]: > 100 µM
- GI50 [3]: 20.6 µM
- TGI [3]: 48.1 µM
- GI50 [4]: 19.1 µM
- TGI [4]: > 100 µM
- GI50 [5]: 14.4 µM
- TGI [5]: > 100 µM
- GI50 [6]: 5.22 µM
- TGI [6]: 72.2 µM
- GI50 [7]: 3.03 µM
- TGI [7]: 20.3 µM
- GI50 [8]: 51.6 µM
- TGI [8]: > 100 µM
- GI50 [9]: 4.36 µM
- TGI [9]: > 100 µM
- GI50 [10]: 7.96 µM
- TGI [10]: > 100 µM
- GI50 [11]: 20.5 µM
- TGI [11]: > 100 µM
- GI50 [12]: 25.1 µM
- TGI [12]: > 100 µM
- GI50 [13]: 7.25 µM
- TGI [13]: > 100 µM
- GI50 [14]: 8.88 µM
- TGI [14]: > 100 µM
- GI50 [15]: 4.98 µM
- TGI [15]: > 100 µM
- GI50 [16]: 4.71 µM
- TGI [16]: > 100 µM
- GI50 [17]: 14.3 µM
- TGI [17]: > 100 µM
- GI50 [18]: 10.6 µM
- TGI [18]: > 100 µM
- GI50 [19]: 54.7 µM
- TGI [19]: > 100 µM
- GI50 [20]: 22.6 µM
- TGI [20]: > 100 µM
- GI50 [21]: 7.96 µM
- TGI [21]: > 100 µM
- GI50 [22]: 7.37 µM
- TGI [22]: > 100 µM
- GI50 [23]: 63.4 µM
- TGI [23]: > 100 µM
- GI50 [24]: 5.4 µM
- TGI [24]: > 100 µM
- GI50 [25]: 47.6 µM
- TGI [25]: > 100 µM
- GI50 [26]: 11.6 µM
- TGI [26]: > 100 µM
- GI50 [27]: 4.61 µM
- TGI [27]: > 100 µM
- GI50 [28]: 12 µM
- TGI [28]: > 100 µM
- GI50 [29]: 20.4 µM
- TGI [29]: > 100 µM
- GI50 [30]: 4.21 µM
- TGI [30]: > 100 µM
- GI50 [31]: 11.3 µM
- TGI [31]: > 100 µM
- GI50 [32]: 15.6 µM
- TGI [32]: > 100 µM
- GI50 [33]: 42.4 µM
- TGI [33]: > 100 µM
- GI50 [34]: 38.6 µM
- TGI [34]: > 100 µM
- GI50 [35]: 8.13 µM
- TGI [35]: 76.8 µM
- GI50 [36]: 9.12 µM
- TGI [36]: > 100 µM
- GI50 [37]: 12.1 µM
- TGI [37]: > 100 µM
- GI50 [38]: 2.73 µM
- TGI [38]: 7.92 µM
- GI50 [39]: 18 µM
- TGI [39]: > 100 µM
- GI50 [40]: 77.1 µM
- TGI [40]: > 100 µM
- GI50 [41]: 17.5 µM
- TGI [41]: > 100 µM
- GI50 [42]: 6.44 µM
- TGI [42]: > 100 µM
- GI50 [43]: 5.42 µM
- TGI [43]: > 100 µM
- GI50 [44]: 8.11 µM
- TGI [44]: 96 µM
- GI50 [45]: 3.97 µM
- TGI [45]: > 100 µM
- GI50 [46]: 16.4 µM
- TGI [46]: > 100 µM
- GI50 [47]: 82.8 µM
- TGI [47]: > 100 µM
- GI50 [48]: 4.68 µM
- TGI [48]: > 100 µM
- GI50 [49]: 8.75 µM
- TGI [49]: > 100 µM
- GI50 [50]: 39.8 µM
- TGI [50]: > 100 µM
- GI50 [51]: 9.05 µM
- TGI [51]: > 100 µM
- GI50 [52]: 25.7 µM
- TGI [52]: > 100 µM
- GI50 [53]: 41.1 µM
- TGI [53]: > 100 µM
- GI50 [54]: 11.6 µM
- TGI [54]: > 100 µM
- GI50 [55]: 7.03 µM
- TGI [55]: > 100 µM
- GI50 [56]: 18.8 µM
- TGI [56]: > 100 µM
- GI50 [57]: 13.6 µM
- TGI [57]: > 100 µM

SMILES: O=C(N/N=C/c1ccc(Cl)o1)c1[nH]c2ccc(Br)cc2c1-c1ccccc1
- GI50 [1]: 0.247 µM
- TGI [1]: 0.889 µM
- GI50 [2]: 0.309 µM
- TGI [2]: 18.3 µM
- GI50 [3]: 20.1 µM
- TGI [3]: 48.9 µM
- GI50 [4]: 3.81 µM
- TGI [4]: 40.2 µM
- GI50 [5]: 0.377 µM
- TGI [5]: 14.2 µM
- GI50 [6]: 0.331 µM
- TGI [6]: > 49.7 µM
- GI50 [7]: 0.295 µM
- TGI [7]: 1.75 µM
- GI50 [8]: 0.388 µM
- TGI [8]: 22.1 µM
- GI50 [9]: 0.585 µM
- TGI [9]: > 100 µM
- GI50 [11]: 0.34 µM
- TGI [11]: 28.1 µM
- GI50 [12]: 0.245 µM
- TGI [12]: 0.549 µM
- GI50 [13]: 0.343 µM
- TGI [13]: 33.6 µM
- GI50 [58]: 0.168 µM
- TGI [58]: 0.514 µM
- GI50 [14]: 0.389 µM
- TGI [14]: 17.9 µM
- GI50 [15]: 0.397 µM
- TGI [15]: 26.1 µM
- GI50 [16]: 0.405 µM
- TGI [16]: > 51.6 µM
- GI50 [17]: 0.17 µM
- TGI [17]: 0.542 µM
- GI50 [18]: 0.264 µM
- TGI [18]: 16.6 µM
- GI50 [19]: 0.567 µM
- TGI [19]: > 100 µM
- GI50 [20]: 0.417 µM
- TGI [20]: 27.3 µM
- GI50 [21]: 4.53 µM
- TGI [21]: > 100 µM
- GI50 [22]: 0.993 µM
- TGI [22]: > 61.2 µM
- GI50 [23]: 0.472 µM
- TGI [23]: 27.4 µM
- GI50 [24]: 0.351 µM
- TGI [24]: 20.2 µM
- GI50 [25]: 0.367 µM
- TGI [25]: 14.7 µM
- GI50 [26]: 0.575 µM
- TGI [26]: > 48.1 µM
- GI50 [27]: 0.402 µM
- TGI [27]: > 100 µM
- GI50 [28]: 0.393 µM
- TGI [28]: > 100 µM
- GI50 [29]: 0.346 µM
- TGI [29]: > 85.9 µM
- GI50 [30]: 0.292 µM
- TGI [30]: > 100 µM
- GI50 [31]: 0.328 µM
- TGI [31]: 10.6 µM
- GI50 [32]: 0.627 µM
- TGI [32]: 25.9 µM
- GI50 [33]: 0.383 µM
- TGI [33]: 32.4 µM
- GI50 [34]: 8.98 µM
- TGI [34]: 37.2 µM
- GI50 [35]: 4.2 µM
- TGI [35]: 43.2 µM
- GI50 [36]: 0.278 µM
- TGI [36]: 23.1 µM
- GI50 [37]: 0.276 µM
- TGI [37]: 14.9 µM
- GI50 [38]: 0.137 µM
- TGI [38]: 0.463 µM
- GI50 [39]: 0.619 µM
- TGI [39]: 29.6 µM
- GI50 [40]: 3.4 µM
- TGI [40]: > 100 µM
- GI50 [41]: 0.212 µM
- TGI [41]: 0.625 µM
- GI50 [42]: 0.407 µM
- TGI [42]: > 40.5 µM
- GI50 [43]: 0.462 µM
- TGI [43]: 49.9 µM
- GI50 [44]: 0.316 µM
- TGI [44]: 12.1 µM
- GI50 [45]: 0.251 µM
- TGI [45]: > 100 µM
- GI50 [59]: 0.423 µM
- TGI [59]: > 100 µM
- GI50 [46]: 0.442 µM
- TGI [46]: > 100 µM
- GI50 [47]: 0.298 µM
- TGI [47]: 3.18 µM
- GI50 [48]: 0.458 µM
- TGI [48]: > 100 µM
- GI50 [49]: 0.38 µM
- TGI [49]: 35.1 µM
- GI50 [50]: 0.401 µM
- TGI [50]: > 94.9 µM
- GI50 [51]: 0.128 µM
- TGI [51]: 3.52 µM
- GI50 [52]: 0.235 µM
- TGI [52]: 0.713 µM
- GI50 [53]: 0.378 µM
- TGI [53]: 27.2 µM
- GI50 [54]: 0.523 µM
- TGI [54]: 21 µM
- GI50 [55]: 0.276 µM
- TGI [55]: 6.37 µM
- GI50 [56]: 0.443 µM
- TGI [56]: 8.54 µM
- GI50 [57]: 0.382 µM
- TGI [57]: 13.3 µM
